These are literature values, as cited in patent publication US20060258633A1, “Amorphous tegaserod maleate” (priority 2005, published 2006).

The conditions of the data set: white to off-white crystalline powder.

Turning to `CCCCCNC(=N)N/N=C/c1c[nH]c2ccc(OC)cc12.O=C(O)/C=C\C(=O)O` [Tegaserod maleate, 3-(5-methoxy-1H-indole-3-ylmethylene)-N-pentylcarbazimidamide hydrogen meleate], the solubility in ethanol result (ethanol) is reported as “slightly soluble”. Further, where the note is “water”, the solubility in water entry is given as “very slightly soluble”.
